pKd: −log10 of the molar value. One block for each compound: values may come before it.
Assays:
CDK12 = biological target: T1, CDK12 (Homo sapiens, UniProt Q9NYV4); test: KINOMEscan binding assay (Eurofins DiscoverX)
T1 construct: purchased Eurofins DiscoverX (KINOMEscan service)

HEK293T cells = test: Proteome-wide quantitation by mass spectrometry (TMT); type: cell-based, human; conditions: for log2FC compound 37: 1 uM 2h vs DMSO
Cyclin K [1] = test: Cyclin K levels by Western blot after single-concentration treatment; type: cell-based, human; conditions: HEK293T cells, 1 μM for 2 h; for cyclin K degradation: Western blot; for Remaining Cyclin K (%): quantified from Western blots, mean ± SD, three independent experiments
Method: (§1) HEK293T human […] kidney cells were cultured in DMEM (Gibco/Life Technologies), containing 25 mM D-glucose, 4 mM L-glutamine, and 1 mM sodium pyruvate, and supplemented with 10% (v/v) FBS and 1% nonessential amino acids (Gibco/Life Technologies). Cells were incubated at 37 °C in a humidified atmosphere with 5% CO2.
(§2) Cells were washed with PBS and lysed (20 mM HEPES pH 7.5, 10% glycerol, 0.4 M KCl, 0.4% Triton X-100, 15 mM EDTA, and 1× protease and phosphatase inhibitors). The insoluble fraction was removed by centrifugation. Protein quantification was performed using a Bradford assay and compared to a BSA calibration curve. Equal amounts of lysates were run on SDS–PAGE 4–12% Bis–Tris Protein Gels (NuPAGE, Thermo Fisher Scientific) and then transferred onto Immobilon-P PVDF Membrane (Millipore, IPVH00010) using a Mini Trans-Blot Cell (Bio-Rad, 1703930). The membranes were blocked with 5% bovine albumin serum (BSA) in Tris-buffered saline with Tween 20 (TBS-T) and incubated with primary antibodies overnight at 4 °C. The membranes were washed three times with TBS-T and incubated with HRP-conjugated secondary antibody (BioRad) for 2 h. Membranes were washed again three times with TBS-T before being developed using Pierce ECL Western Blotting Substrate (Thermo, 32106) and visualized using LI-COR. Antibodies were purchased from Cell Signaling Technology: anti-GAPDH (D4C6R) and anti-DDB1 (D4C8) or Bethyl Laboratories: anti-Cyclin K (A301-939A). The following HRP-linked secondary antibodies were used by dilution in 5% BSA/TBS-T: antirabbit IgG (BioRad, 5213–2504) and antimouse IgG (BioRad, 103005).
(§3) Unedited blots containing the marker lane are available on request. Western blots were quantified using ImageJ. Cyclin K levels were normalized using GAPDH as a loading control. DC50 values were calculated from concentration–response curves using nonlinear regression fit to a 4-parameter curve by GraphPad Prism.

Cyclin K [2] = test: Cyclin K degradation concentration-response (DC50, DMax) by Western blot; type: cell-based, human; conditions: HEK293T, Western blot quantification, 3 biological repeats
Method: With the aim of comparing the degradation ability of the new analogues, we derived DC50 values by using Western blotting (Table 5). […] This approach has been previously used to improve the potency of BCL6 degraders.[33] We therefore also measured CDK12 affinity using the KINOMEscan binding assay (Table 5).[34]
as §1, §2, §3

PAMPA permeability = type: in vitro ADME; conditions: for Papp: pH 7.4, PAMPA, pH7.4, read-out: pH7.4 Papp x 10^-6

T1 sequence (Q9NYV4 whole entry): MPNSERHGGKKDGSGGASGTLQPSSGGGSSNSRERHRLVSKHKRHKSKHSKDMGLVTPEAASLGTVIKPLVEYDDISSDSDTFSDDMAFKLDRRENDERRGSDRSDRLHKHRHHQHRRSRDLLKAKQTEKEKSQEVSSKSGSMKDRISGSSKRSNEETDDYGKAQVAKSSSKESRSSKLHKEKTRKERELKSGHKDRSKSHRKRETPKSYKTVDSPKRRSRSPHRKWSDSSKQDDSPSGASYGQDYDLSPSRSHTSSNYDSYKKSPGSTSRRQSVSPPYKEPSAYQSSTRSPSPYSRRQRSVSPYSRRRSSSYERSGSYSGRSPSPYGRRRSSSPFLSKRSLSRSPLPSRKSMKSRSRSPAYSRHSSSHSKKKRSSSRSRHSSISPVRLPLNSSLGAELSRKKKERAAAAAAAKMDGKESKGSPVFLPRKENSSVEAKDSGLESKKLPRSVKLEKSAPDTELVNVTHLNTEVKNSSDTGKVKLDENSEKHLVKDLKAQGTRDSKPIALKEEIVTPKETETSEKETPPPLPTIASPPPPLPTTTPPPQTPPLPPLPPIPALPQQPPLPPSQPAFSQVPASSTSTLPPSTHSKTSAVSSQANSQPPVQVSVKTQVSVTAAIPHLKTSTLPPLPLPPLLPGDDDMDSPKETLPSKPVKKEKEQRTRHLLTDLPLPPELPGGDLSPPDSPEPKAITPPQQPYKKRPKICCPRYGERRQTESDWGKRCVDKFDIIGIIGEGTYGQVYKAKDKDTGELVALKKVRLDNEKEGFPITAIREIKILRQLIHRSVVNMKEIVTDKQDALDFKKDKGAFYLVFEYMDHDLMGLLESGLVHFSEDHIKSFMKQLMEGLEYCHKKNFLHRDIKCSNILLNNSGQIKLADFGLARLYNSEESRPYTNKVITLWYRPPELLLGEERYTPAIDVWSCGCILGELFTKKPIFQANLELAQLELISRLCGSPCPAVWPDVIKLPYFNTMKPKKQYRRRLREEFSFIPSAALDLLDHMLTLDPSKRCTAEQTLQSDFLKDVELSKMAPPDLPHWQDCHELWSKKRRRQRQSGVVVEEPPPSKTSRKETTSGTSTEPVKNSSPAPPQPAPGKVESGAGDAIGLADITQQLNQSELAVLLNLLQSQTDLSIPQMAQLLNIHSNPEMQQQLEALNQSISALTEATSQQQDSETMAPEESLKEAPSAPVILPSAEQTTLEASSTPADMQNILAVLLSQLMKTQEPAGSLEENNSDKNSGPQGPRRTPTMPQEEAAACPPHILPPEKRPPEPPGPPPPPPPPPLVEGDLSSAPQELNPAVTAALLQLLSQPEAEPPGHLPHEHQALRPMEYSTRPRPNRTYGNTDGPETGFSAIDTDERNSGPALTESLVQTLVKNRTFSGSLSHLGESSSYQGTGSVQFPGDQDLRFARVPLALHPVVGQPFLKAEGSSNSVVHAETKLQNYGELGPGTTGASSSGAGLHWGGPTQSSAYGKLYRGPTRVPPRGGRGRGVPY

SMILES: OCCC1CCCCN1c1cc(NCc2ccc(C3=CCOCC3)cc2)n2ncc(Br)c2n1 (stereo not drawn) [compound 37]
fold better CDK12 affinity versus CR8/seliciclib-core analogue (CDK12; 36 vs 1, 37 vs 21): 25 fold | pKd (CDK12; KINOMEscan): 7.92 | number of proteins showing at least a −0.5 log2 fold change (HEK293T cells; HEK293T, 1 μM, 2 h treatment): 28 proteins | cyclin K log2 fold decrease (HEK293T cells; HEK293T, 1 μM, 2 h vs DMSO): 0.75 log2 fold | log2FC compound 37 (HEK293T cells; protein ARF4): 0.5982 | log2FC compound 37 (HEK293T cells; protein C1orf167): 0.8136 | log2FC compound 37 (HEK293T cells; protein CBX6): -0.9913 | log2FC compound 37 (HEK293T cells; protein CCNE2): 0.934 | log2FC compound 37 (HEK293T cells; protein CCNK (Cyclin-K)): -0.7468 | log2FC compound 37 (HEK293T cells; protein CD9): 0.636 | log2FC compound 37 (HEK293T cells; protein CD59): 1.0368 | log2FC compound 37 (HEK293T cells; protein CD63): 1.1474 | log2FC compound 37 (HEK293T cells; protein CD151): 0.6898 | log2FC compound 37 (HEK293T cells; protein CDKL5): 1.0373 | log2FC compound 37 (HEK293T cells; protein CHCHD2): -1.0001 | log2FC compound 37 (HEK293T cells; protein CHTOP): -0.8383 | log2FC compound 37 (HEK293T cells; protein COPRS): 0.6 | log2FC compound 37 (HEK293T cells; protein COX6B1): 0.6513 | log2FC compound 37 (HEK293T cells; protein COX7A2): -1.2026 | log2FC compound 37 (HEK293T cells; protein DCDC1): 1.1229 | log2FC compound 37 (HEK293T cells; protein DDX56): -0.6203 | log2FC compound 37 (HEK293T cells; protein DHX58): 0.8865 | log2FC compound 37 (HEK293T cells; protein ECI1): 0.6918 | log2FC compound 37 (HEK293T cells; protein EI24): 0.7719 | log2FC compound 37 (HEK293T cells; protein FAM234A): 0.6256 | log2FC compound 37 (HEK293T cells; protein FITM2): 0.6697 | log2FC compound 37 (HEK293T cells; protein FYTTD1): -2.375 | log2FC compound 37 (HEK293T cells; protein H2AC6): -2.0131 | log2FC compound 37 (HEK293T cells; protein H2AC14): -1.9547 | log2FC compound 37 (HEK293T cells; protein HES1): -0.614 | log2FC compound 37 (HEK293T cells; protein HEY1): -0.6221 | log2FC compound 37 (HEK293T cells; protein HMGN2): -0.636 | log2FC compound 37 (HEK293T cells; protein KCTD1): 0.7125 | log2FC compound 37 (HEK293T cells; protein LIPA): 0.6704 | log2FC compound 37 (HEK293T cells; protein LPCAT3): 1.2861 | log2FC compound 37 (HEK293T cells; protein LPIN2): 0.6164 | log2FC compound 37 (HEK293T cells; protein LSM1): 0.8572 | log2FC compound 37 (HEK293T cells; protein MBTPS2): 0.6567 | log2FC compound 37 (HEK293T cells; protein MEIS1): -0.7346 | log2FC compound 37 (HEK293T cells; protein MGARP): 0.6836 | log2FC compound 37 (HEK293T cells; protein MSMO1): 0.6345 | log2FC compound 37 (HEK293T cells; protein MT-ND4): 0.6222 | log2FC compound 37 (HEK293T cells; protein NSA2): -1.3835 | log2FC compound 37 (HEK293T cells; protein NXT2): 1.1373 | log2FC compound 37 (HEK293T cells; protein PPP1CB): -0.7306 | log2FC compound 37 (HEK293T cells; protein PPP1R15B): -0.7195 | log2FC compound 37 (HEK293T cells; protein PRNP): 0.8396 | log2FC compound 37 (HEK293T cells; protein RER1): 0.5962 | log2FC compound 37 (HEK293T cells; protein RPF1): -0.9869 | log2FC compound 37 (HEK293T cells; protein RPS14): -0.5979 | log2FC compound 37 (HEK293T cells; protein RPS29): -0.7373 | log2FC compound 37 (HEK293T cells; protein SIAE): 0.6299 | log2FC compound 37 (HEK293T cells; protein SLC44A2): 0.8263 | log2FC compound 37 (HEK293T cells; protein SNAI2): -1.0919 | log2FC compound 37 (HEK293T cells; protein SURF6): -0.5977 | log2FC compound 37 (HEK293T cells; protein TMSB4X): -0.7637 | log2FC compound 37 (HEK293T cells; protein TOB1): -1.2431 | log2FC compound 37 (HEK293T cells; protein TOB2): -0.8728 | log2FC compound 37 (HEK293T cells; protein TVP23C): 0.6132 | log2FC compound 37 (HEK293T cells; protein WHAMM): -1.0385 | log2FC compound 37 (HEK293T cells; protein ZBTB17): 0.799 | log2FC compound 37 (HEK293T cells; protein ZKSCAN2): -0.5989 | log2FC compound 37 (HEK293T cells; protein ZNF92): -0.7406 | log2FC compound 37 (HEK293T cells; protein ZNF385A): -0.6523 | cyclin K degradation (Cyclin K [1]): only partial degradation | Remaining Cyclin K (%) (Cyclin K [1]): 32 ± 11% | DMax (%) (Cyclin K [2]): 75% | DC50 (Cyclin K [2]; read-out: CycK DC50): 41 nM

SMILES: CC[C@H](CO)Nc1nc(NCc2ccc(-c3ccc(O)cn3)cc2)c2ncn(C(C)C)c2n1 [compound 8]
Remaining Cyclin K (%) (Cyclin K [1]): 94 ± 9% | Papp (PAMPA permeability): < 0.3 ×10⁻⁶ cm/s

SMILES: CC[C@H](CO)Nc1nc(NCc2ccc(-c3ncccc3O)cc2)c2ncn(C(C)C)c2n1 [compound 20]
cyclin K degradation (Cyclin K [1]): reduced degradation ability compared to CR8 | Remaining Cyclin K (%) (Cyclin K [1]): 35 ± 3% | Papp (PAMPA permeability): < 0.4 ×10⁻⁶ cm/s

SMILES: CC[C@H](CO)Nc1nc(NCc2ccc(C3CCCCC3)cc2)c2ncn(C(C)C)c2n1 [compound 23]
cyclin K degradation (Cyclin K [1]): degradation ability was significantly reduced | Remaining Cyclin K (%) (Cyclin K [1]): 74 ± 10% | Papp (PAMPA permeability): 12.7 ×10⁻⁶ cm/s

Further lines, with some results ahead:

Papp (PAMPA permeability): < 0.3 ×10⁻⁶ cm/s
SMILES: CC[C@H](CO)Nc1nc(NCc2ccc(-c3cn(C)cn3)cc2)c2ncn(C(C)C)c2n1 [compound 30]
cyclin K degradation (Cyclin K [1]): decreased degradation ability | Remaining Cyclin K (%) (Cyclin K [1]): 38 ± 21%

PAMPA permeability (PAMPA permeability): low permeability | Papp (PAMPA permeability): < 0.2 ×10⁻⁶ cm/s
SMILES: CC[C@H](CO)Nc1nc(NCc2ccc(-c3cn[nH]c3)cc2)c2ncn(C(C)C)c2n1 [compound 31]
cyclin K degradation (Cyclin K [1]): complete loss of degradation | Remaining Cyclin K (%) (Cyclin K [1]): 93 ± 10%

PAMPA permeability (PAMPA permeability): comparable permeabilities | Papp (PAMPA permeability): 41 ×10⁻⁶ cm/s
SMILES: CC[C@H](CO)Nc1nc(NCc2ccc(N3CCOCC3)cc2)c2ncn(C(C)C)c2n1 [compound 25]
cyclin K degradation (Cyclin K [1]): only partial degradation | Remaining Cyclin K (%) (Cyclin K [1]): 41 ± 23%

Reference: article PMC10804372, “Degradation by Design: New Cyclin K Degraders from Old CDK Inhibitors” (ACS Chemical Biology, 2024)
